According to patent US20260092057A1, “BCL-XL/BCL-2 DEGRADERS AND USES THEREOF” (Kymera Therapeutics, Inc., priority 2022, published 2026):

Assays:
Assay type in all cases: cell-based
MOLT-4 cells = assay: CTG (CellTiter-Glo) cell viability assay, MOLT-4; conditions: Homo sapiens, MOLT-4, 72 h, MOLT-4, 3 day; read-out: CTG Cell Viability Assay - MOLT-4 3 day: Average external-IC50
Procedure: (§1) Compound-mediated viability effect on MOLT-4 and Caki-2 was quantitatively determined using the CellTiter-Glo® Luminescent Cell Viability Assay kit from Promega (Catalog number G7570) following manufacturer's recommended procedures. Briefly, MOLT-4 and Caki-2 cells were seeded into 384 well plates (Grenier Bio-One, Catalog number 781080) with a density of 10,000 cells per well. Compounds were then added to the assay plate with final top concentration of 10 µM and 1:3 dilution series with total of 9 doses. The final DMSO concentration is normalized to 0.2%. The assay plates were incubated at 37° C. for 3 days under 5% CO2. Then the assay plate was equilibrated at room temperature for 10 minutes. To determine cell viability, 30 uL CellTiter Glo reagent was added to each well and the assay plate was centrifuged at 1000 rpm for 30 second, incubated at room temperature for 10 min, and analyzed by detecting the luminescence using a multimode plate reader (EnVision 2105, PerkinElmer). The data was then analyzed by software Prism 7.0 from GraphPad and the dose response curves are fit using a three-parameter logistic equation to calculate IC50.
(§2) The letter codes for MOLT-4 IC50 include: A (<0.1 μM); B (0.1-1.0 μM); C (>1.0-3.0 μM); and D (>3.0 μM). The letter codes for Caki-2 IC50 include: A (<5 μM); B (5-10 μM); C (>10-30.0 μM); and D (>30.0 μM).

Caki-2 cells = assay: CTG (CellTiter-Glo) cell viability assay, Caki-2; conditions: Homo sapiens, CAKI-2, 72 h, Caki-2, 3-day; read-out: CTG Chempartner/PHA- Caki-2 3-day: Average external-IC50
Procedure: as §1, §2

BCL-XL = molecular target: T1, BCL-XL (Homo sapiens, UniProt Q07817); assay: BCL-XL degradation assay in MOLT-4 cells (ELISA, 6 h); conditions: for DC50: read-out: Bcl-xL ELISA in MOLT-4 degradation 6 h: External Abs-DC50
T1 construct: BCL-XL degradation results in MOLT-4 cells for compounds of the invention; endogenous in cells; host or cells: MOLT-4
T1 sequence (Q07817 whole entry): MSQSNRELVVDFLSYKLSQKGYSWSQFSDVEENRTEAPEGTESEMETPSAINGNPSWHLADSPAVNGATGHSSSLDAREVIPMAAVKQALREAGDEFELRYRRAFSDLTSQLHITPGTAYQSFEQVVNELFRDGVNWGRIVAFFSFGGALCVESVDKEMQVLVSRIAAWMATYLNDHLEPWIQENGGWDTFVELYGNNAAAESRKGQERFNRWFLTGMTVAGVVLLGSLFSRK

Row | Compound | IC50 (MOLT-4 cells) [nM] | Dmax (BCL-XL) [%] | DC50 (BCL-XL) [nM] | IC50 (Caki-2 cells) [nM]
1 | Cc1ncsc1-c1ccc([C@H](C)NC(=O)[C@@H]2C[C@@H](O)CN2C(=O)[C@@H](NC(=O)CCCCC(=O)N2CCN(CC[C@H](CSc3ccccc3)Nc3ccc(S(=O)(=O)NC(=O)c4ccc(N5CCC([C@@H](O)c6ccccc6-c6ccc(Cl)cc6)CC5)cc4)cc3S(=O)(=O)C(F)(F)F)CC2)C(C)(C)C)cc1 [I-109] | 100 to 1000 | > 75 | 10 to 100 | > 30000
2 | Cc1ncsc1-c1ccc([C@H](C)NC(=O)[C@@H]2C[C@@H](O)CN2C(=O)[C@@H](NC(=O)CCC2CCN(CCCNc3ccc(S(=O)(=O)NC(=O)c4ccc(N5CCN([C@H](O)c6ccccc6-c6ccc(Cl)cc6)CC5)cc4Oc4cnc5[nH]ccc5c4)cc3S(=O)(=O)C(F)(F)F)CC2)C(C)(C)C)cc1 [I-129] | > 3000 | – | – | > 30000
3 | Cc1ncsc1-c1ccc([C@H](C)NC(=O)[C@@H]2C[C@@H](O)CN2C(=O)[C@@H](NC(=O)CCCCCC(=O)N2CCN(CC[C@H](CSc3ccccc3)Nc3ccc(S(=O)(=O)NC(=O)c4ccc(N5CC(N(C)C)C5)cc4)cc3S(=O)(=O)C(F)(F)F)CC2)C(C)(C)C)cc1 [I-49] | > 3000 | – | – | > 30000
4 | Cc1ncsc1-c1ccc([C@H](C)NC(=O)[C@@H]2C[C@@H](O)CN2C(=O)[C@@H](NC(=O)CCC(=O)N2CCN(CC[C@H](CSc3ccccc3)Nc3ccc(S(=O)(=O)NC(=O)c4ccc(N5CCC([C@@H](O)c6ccccc6-c6ccc(Cl)cc6)CC5)cc4)cc3S(=O)(=O)C(F)(F)F)CC2)C(C)(C)C)cc1 [I-119] | > 3000 | – | – | > 30000
5 | Cc1ncsc1-c1ccc([C@H](C)NC(=O)[C@@H]2C[C@@H](O)CN2C(=O)[C@@H](NC(=O)CCCCCC(=O)N2CC3(CN(CCCNc4ccc(S(=O)(=O)NC(=O)c5ccc(N6CCN(CC7=C(c8ccc(Cl)cc8)CC(C)(C)CC7)CC6)cc5Oc5cnc6[nH]ccc6c5)cc4S(=O)(=O)C(F)(F)F)C3)C2)C(C)(C)C)cc1 [I-107] | 100 to 1000 | – | – | > 30000
6 | Cc1ncsc1-c1ccc([C@H](C)NC(=O)[C@@H]2C[C@@H](N)CN2C(=O)[C@@H](NC(=O)C2CCN(CCCNc3ccc(S(=O)(=O)NC(=O)c4ccc(N5CCC([C@H](O)c6ccccc6-c6ccc(Cl)cc6)CC5)cc4Oc4cnc5[nH]ccc5c4)cc3S(=O)(=O)C(F)(F)F)CC2)C(C)(C)C)cc1 [I-92] | > 3000 | – | – | > 30000
7 | Cc1ncsc1-c1ccc([C@H](C)NC(=O)[C@@H]2C[C@@H](O)CN2C(=O)[C@@H](NC(=O)CCCCCCC(=O)N2CCN(C[C@]3(C)CCC(c4ccc(Cl)cc4)=C(CN4CCN(c5ccc(C(=O)NS(=O)(=O)c6ccc(NCCN7CCOCC7)c(S(=O)(=O)C(F)(F)F)c6)c(Oc6cnc7[nH]ccc7c6)c5)CC4)C3)CC2)C(C)(C)C)cc1 [I-93] | 1000 to 3000 | – | – | > 30000
8 | Cc1ncsc1-c1ccc([C@H](C)NC(=O)[C@@H]2C[C@@H](O)CN2C(=O)[C@@H](NC(=O)CCCCCC(=O)N2CCN(CC[C@H](CSc3ccccc3)Nc3ccc(S(=O)(=O)NC(=O)c4ccc(N5CCC6(CN(C)C6)C5)cc4)cc3S(=O)(=O)C(F)(F)F)CC2)C(C)(C)C)cc1 [I-50] | > 3000 | – | – | > 30000
9 | Cc1ncsc1-c1ccc([C@H](C)NC(=O)[C@@H]2C[C@@H](O)CN2C(=O)[C@@H](NC(=O)CCCCCC(=O)N[C@@H]2CCN(CCCNc3ccc(S(=O)(=O)NC(=O)c4ccc(N5CCN(CC6=C(c7ccc(Cl)cc7)CC(C)(C)CC6)CC5)cc4Oc4cnc5[nH]ccc5c4)cc3S(=O)(=O)C(F)(F)F)C2)C(C)(C)C)cc1 [I-95] | > 3000 | – | – | > 30000
10 | COc1ccc(Oc2cc(N3CCN(CC4=C(c5ccc(Cl)cc5)CC(C)(C)CC4)CC3)ccc2C(=O)NS(=O)(=O)c2ccc(NCCCN3CCN(C(=O)CCCCCC(=O)N[C@H](C(=O)C4C[C@H](O)C[C@H]4C(=O)C[C@@H](C)c4ccc(-c5scnc5C)cc4)C(C)(C)C)CC3)c(S(=O)(=O)C(F)(F)F)c2)cc1 (some centres unmarked) [I-136] | 100 to 1000 | – | – | > 30000
11 | Cc1ncsc1-c1ccc([C@H](C)NC(=O)[C@@H]2C[C@@H](O)CN2C(=O)[C@@H](NC(=O)CCCCCC(=O)N(C)CC[C@H](CSc2ccccc2)Nc2ccc(S(=O)(=O)NC(=O)c3ccc(N4CCC([C@@H](O)c5ccccc5-c5ccc(Cl)cc5)CC4)cc3)cc2S(=O)(=O)C(F)(F)F)C(C)(C)C)cc1 [I-72] | 1000 to 3000 | – | – | 10000 to 30000
12 | Cc1ncsc1-c1ccc([C@H](C)NC(=O)[C@@H]2C[C@@H](O)CN2C(=O)[C@@H](NC(=O)CCCCCC(=O)N2CCN(CCCNc3ccc(S(=O)(=O)NC(=O)c4ccc(N5CCN(C)CC5)cc4Oc4cnc5[nH]ccc5c4)cc3S(=O)(=O)C(F)(F)F)CC2)C(C)(C)C)cc1 [I-57] | > 3000 | – | – | > 30000
13 | C#Cc1ccc([C@H](C)NC(=O)[C@@H]2C[C@@H](O)CN2C(=O)[C@@H](NC(=O)CCCCCC(=O)N2CCN(CCCNc3ccc(S(=O)(=O)NC(=O)c4ccc(N5CCN(CC6=C(c7ccc(Cl)cc7)CC(C)(C)CC6)CC5)cc4Oc4cnc5[nH]ccc5c4)cc3S(=O)(=O)C(F)(F)F)CC2)C(C)(C)C)c(OC)c1 [I-103] | 100 to 1000 | – | – | > 30000
14 | Cc1ncsc1-c1ccc([C@H](C)NC(=O)[C@@H]2C[C@@H](O)CN2C(=O)[C@@H](NC(=O)CCC2CCN(CCCNc3ccc(S(=O)(=O)NC(=O)c4ccc(N5CCN([C@@H](O)c6ccccc6-c6ccc(Cl)cc6)CC5)cc4Oc4cnc5[nH]ccc5c4)cc3S(=O)(=O)C(F)(F)F)CC2)C(C)(C)C)cc1 [I-128] | > 3000 | – | – | > 30000
15 | Cc1ncsc1-c1ccc([C@H](C)NC(=O)[C@@H]2C[C@@H](O)CN2C(=O)[C@@H](NC(=O)CCCCCC(=O)N2CCN(CCNc3ccc(S(=O)(=O)NC(=O)c4ccc(N5CCN(CC6=C(c7ccc(Cl)cc7)CC(C)(C)CC6)CC5)cc4Oc4cnc5[nH]ccc5c4)cc3S(=O)(=O)C(F)(F)F)CC2)C(C)(C)C)cc1 [I-97] | > 3000 | – | – | > 30000
16 | Cc1ncsc1-c1ccc([C@H](C)NC(=O)[C@@H]2C[C@@H](O)CN2C(=O)[C@@H](NC(=O)CCCCCC(=O)NCCCNc2ccc(S(=O)(=O)NC(=O)c3ccc(N4CCN(CC5=C(c6ccc(Cl)cc6)CC(C)(C)CC5)CC4)cc3Oc3cnc4[nH]ccc4c3)cc2S(=O)(=O)C(F)(F)F)C(C)(C)C)cc1 [I-76] | > 3000 | – | – | > 30000

The next lines start with results.

Row | IC50 (MOLT-4 cells) [nM] | Dmax (BCL-XL) [%] | DC50 (BCL-XL) [nM] | Compound | IC50 (Caki-2 cells) [nM]
17 | > 3000 | < 50 | 500 to 1000 | Cc1ncsc1-c1ccc([C@H](C)NC(=O)[C@@H]2C[C@@H](O)CN2C(=O)[C@@H](NC(=O)CCCCCC(=O)N2CCN(CC[C@H](CSc3ccccc3)Nc3ccc(S(=O)(=O)NC(=O)c4ccc(N5CCOCC5)cc4)cc3S(=O)(=O)C(F)(F)F)CC2)C(C)(C)C)cc1 [I-36] | > 30000
18 | > 3000 | – | – | Cc1ncsc1-c1ccc([C@H](C)NC(=O)[C@@H]2C[C@@H](N)CN2C(=O)[C@@H](NC(=O)C2CCN(CCCNc3ccc(S(=O)(=O)NC(=O)c4ccc(N5CCC([C@@H](O)c6ccccc6-c6ccc(Cl)cc6)CC5)cc4Oc4cnc5[nH]ccc5c4)cc3S(=O)(=O)C(F)(F)F)CC2)C(C)(C)C)cc1 (single isomer, unassigned) [I-91] | > 30000
19 | > 3000 | – | – | Cc1ncsc1-c1ccc([C@H](C)NC(=O)[C@@H]2C[C@@H](O)CN2C(=O)[C@@H](NC(=O)CCC(=O)N2CCN(CCCNc3ccc(S(=O)(=O)NC(=O)c4ccc(N5CCN(CC6=C(c7ccc(Cl)cc7)CC(C)(C)CC6)CC5)cc4Oc4cnc5[nH]ccc5c4)cc3S(=O)(=O)C(F)(F)F)CC2)C(C)(C)C)cc1 [I-79] | > 30000
20 | > 3000 | – | – | Cc1ncsc1-c1ccc([C@H](C)NC(=O)[C@@H]2C[C@@H](O)CN2C(=O)[C@@H](NC(=O)CCCCC(=O)N2CCC3(CCN(Cc4ccc(-c5ccc(Cl)cc5)c(CN5CCN(c6ccc(C(=O)NS(=O)(=O)c7ccc(N[C@H](CCN(C)C)CSc8ccccc8)c([N+](=O)[O-])c7)cc6)CC5)c4)CC3)CC2)C(C)(C)C)cc1 [I-17] | > 30000
21 | > 3000 | – | – | Cc1ncsc1-c1ccc([C@H](C)NC(=O)[C@@H]2C[C@@H](O)CN2C(=O)[C@@H](NC(=O)CCCCCC(=O)N2CCN(Cc3ccc(-c4ccc(Cl)cc4)c([C@H](O)C4CCN(c5ccc(C(=O)NS(=O)(=O)c6ccc(NCCCN(C)C)c(S(=O)(=O)C(F)(F)F)c6)c(Oc6cnc7[nH]ccc7c6)c5)CC4)c3)CC2)C(C)(C)C)cc1 [I-111] | > 30000
22 | > 3000 | – | – | C#Cc1ccc(CNC(=O)[C@@H]2C[C@@H](O)CN2C(=O)[C@@H](NC(=O)C2(F)CC2)C(C)(C)C)c(OCCCCCCC(=O)N2CCN(CCCNc3ccc(S(=O)(=O)NC(=O)c4ccc(N5CCN(CC6=C(c7ccc(Cl)cc7)CC(C)(C)CC6)CC5)cc4Oc4cnc5[nH]ccc5c4)cc3S(=O)(=O)C(F)(F)F)CC2)c1 [I-104] | > 30000
23 | 1000 to 3000 | – | – | Cc1ncsc1-c1ccc([C@H](C)NC(=O)[C@@H]2C[C@@H](O)CN2C(=O)[C@@H](NC(=O)CCCCCC(=O)N(C)CCCNc2ccc(S(=O)(=O)NC(=O)c3ccc(N4CCC([C@H](O)c5ccccc5-c5ccc(Cl)cc5)CC4)cc3Oc3cnc4[nH]ccc4c3)cc2S(=O)(=O)C(F)(F)F)C(C)(C)C)cc1 (single isomer, unassigned) [I-58] | > 30000
